Read-outs that look alike come from different tables or passages of the source.
Assays:
MCF-7 breast cell line = experiment: MTT assay, anti-proliferative activity toward MCF-7; format: cell-based; details: Homo sapiens, MCF7
Protocol: . The developed compounds were evaluated in vitro using the MTT cell viability assay following the published techniques (Supplementary Data, page 42). […]
(§1) The 96 well tissue culture plate was seeded with 1 X 10^5 cells / ml (100 ul / well) and cultured at 37 degrees Celsius for 24 hours to form a full monolayer sheet. After forming a confluent sheet of cells, growth medium was decanted from 96 well micro titer plates, the cell monolayer was washed twice with wash media, and two-fold dilutions of the tested sample were prepared in RPMI medium with 2% serum (maintenance medium). In each well, 0.1 ml of each dilution was examined, with three wells serving as controls and receiving only maintenance media.
(§2) The plate was incubated at 37 degrees Celsius and then analyzed. Cells were examined for any physical evidence of toxicity, such as partial or total monolayer loss, rounding, shrinkage, or cell granulation. MTT solution (5mg/ml in PBS) was prepared (BIO BASIC CANADA INC), and 20ul MTT solution was added to each well. Shake the MTT into the medium for 5 minutes at 150rpm on a shaking table. Incubate for 4 hours (37°C, 5% CO2) to allow the MTT to be digested. Remove the media. (If required, dry plate on paper towels to remove residue. In 200ul DMSO, resuspend formazan (MTT metabolic product). Shake at 150rpm for 5 minutes to properly mix the formazan into the solvent. At 560nm, measure optical density and subtract background at 620nm. The optical density should be proportional to the number of cells. MCF-7 and MCF-10A cell lines were provided with 10% fetal bovine serum (FBS, Sigma-Aldrich, MO, USA). Data are presented as the mean of the IC50 values ± SD from three different experiments. […]

MCF-10A = experiment: MTT assay, cytotoxicity toward MCF-10A; format: cell-based; details: Homo sapiens
Protocol: The developed compounds were evaluated in vitro using the MTT cell viability assay following the published techniques (Supplementary Data, page 42). […]
as §1, §2

VEGFR-2 = VEGFR-2 (Homo sapiens, UniProt P35968); experiment: In vitro VEGFR-2 kinase inhibition assay; format: biochemical; details: mean ± SD of three experiments
Sequence of VEGFR-2 (P35968 20-1356): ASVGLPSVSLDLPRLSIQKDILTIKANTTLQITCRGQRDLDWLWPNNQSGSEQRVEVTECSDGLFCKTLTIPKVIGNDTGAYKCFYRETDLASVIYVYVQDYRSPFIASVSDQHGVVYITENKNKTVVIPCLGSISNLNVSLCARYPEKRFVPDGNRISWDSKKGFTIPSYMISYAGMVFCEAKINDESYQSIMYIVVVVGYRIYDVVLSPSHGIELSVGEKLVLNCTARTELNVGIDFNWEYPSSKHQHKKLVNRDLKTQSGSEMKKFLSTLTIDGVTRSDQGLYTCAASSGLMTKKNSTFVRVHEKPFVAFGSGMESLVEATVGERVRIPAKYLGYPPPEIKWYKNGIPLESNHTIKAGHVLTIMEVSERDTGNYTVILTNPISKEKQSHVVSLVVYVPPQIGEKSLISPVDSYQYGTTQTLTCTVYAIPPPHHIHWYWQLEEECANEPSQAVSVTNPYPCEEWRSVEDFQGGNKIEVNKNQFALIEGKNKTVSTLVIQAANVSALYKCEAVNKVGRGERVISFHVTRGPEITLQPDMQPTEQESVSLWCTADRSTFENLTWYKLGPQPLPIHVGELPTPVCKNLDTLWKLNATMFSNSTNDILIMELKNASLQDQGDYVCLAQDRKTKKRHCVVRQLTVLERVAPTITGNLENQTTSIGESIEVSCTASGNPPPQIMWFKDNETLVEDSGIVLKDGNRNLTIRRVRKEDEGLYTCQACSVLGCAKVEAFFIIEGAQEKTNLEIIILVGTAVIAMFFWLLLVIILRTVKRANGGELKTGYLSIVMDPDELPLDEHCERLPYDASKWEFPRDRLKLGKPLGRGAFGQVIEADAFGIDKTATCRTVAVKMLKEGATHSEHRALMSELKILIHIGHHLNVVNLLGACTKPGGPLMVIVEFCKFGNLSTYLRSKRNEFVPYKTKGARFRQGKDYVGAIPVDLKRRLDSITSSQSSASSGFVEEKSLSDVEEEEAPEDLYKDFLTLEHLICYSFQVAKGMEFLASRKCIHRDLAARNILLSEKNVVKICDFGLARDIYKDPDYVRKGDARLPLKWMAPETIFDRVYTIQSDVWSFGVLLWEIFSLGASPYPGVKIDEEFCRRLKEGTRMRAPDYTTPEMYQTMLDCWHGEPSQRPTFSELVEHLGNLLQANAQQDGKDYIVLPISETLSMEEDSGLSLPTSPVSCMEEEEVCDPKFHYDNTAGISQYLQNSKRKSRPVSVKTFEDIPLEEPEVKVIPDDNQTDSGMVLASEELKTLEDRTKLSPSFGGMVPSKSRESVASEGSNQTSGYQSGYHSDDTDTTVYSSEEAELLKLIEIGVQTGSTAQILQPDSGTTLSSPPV

MCF-7 cell line = details: cited from earlier work
[1] = MCF-7 cell line, MTT assay, mean ± SD of three experiments, read-out: IC50
[2] = MTT assay, mean ± SD of three experiments, read-out: IC50

Molecule `Cc1nc2sccn2c1C(=O)NN=C1C(=O)Nc2ccc(Cl)cc21` [Compound 6c, N′-(5-Chloro-2-oxoindolin-3-ylidene)-6-methylimidazo[2,1-b]thiazole-5-carbohydrazide] has an IC50 (MCF-7 breast cell line; [1]) of 43.1 ± 3.69 µM and a melting point of 292 to 293 °C.
For `CCCCN1C(=O)C(=NNC(=O)c2c(C)nc3sccn23)c2cc(F)ccc21` [Compound 6j, N′-(1-Butyl-5-fluoro-2-oxoindolin-3-ylidene)-6-methylimidazo[2,1-b]thiazole-5-carbohydrazide], the IC50 (MCF-7 breast cell line) was 11.7 ± 0.52 µM, the IC50 (MCF-10A) was 47.7 ± 0.53 µM and the IC50 (VEGFR-2) was 1.51 ± 0.06 µM. The melting point was 237 to 238 °C.
`CCCN1C(=O)C(=NNC(=O)c2c(C)nc3sccn23)c2cc(Cl)ccc21` [Compound 6g, N′-(5-Chloro-2-oxo-1-propylindolin-3-ylidene)-6-methylimidazo[2,1-b]thiazole-5-carbohydrazide] gave an IC50 (MCF-7 breast cell line) of 52.5 ± 1.26 µM and a melting point of 254 to 255 °C.
Molecule `Cc1nc2sccn2c1NC(=O)Nc1ccccc1` [Compound 8a, 1-(6-Methylimidazo[2,1-b]thiazol-5-yl)-3-phenylurea] has an IC50 (MCF-7 breast cell line; [1]) of 110 ± 4.62 µM and a melting point of 287 to 288 °C.
In the case of `Cc1ccc(NC(=O)Nc2c(C)nc3sccn23)cc1` [Compound 8b, 1-(6-Methylimidazo[2,1-b]thiazol-5-yl)-3-(p-tolyl)urea], the IC50 (MCF-7 breast cell line; [1]) is reported as 115 ± 4.99 µM and the melting point is reported as 282 to 283 °C.
`CCCCN1C(=O)/C(=N\NC(=O)c2c(C)nc3sccn23)c2cc(Br)ccc21` [Compound 6l, N′-(5-Romo-1-butyl-2-oxoindolin-3-ylidene)-6-methylimidazo[2,1-b]thiazole-5-carbohydrazide] showed an IC50 (MCF-7 breast cell line) of 52.6 ± 2.36 µM and a melting point of 237 to 238 °C.
For `O=C1Nc2ccccc2/C1=N/N=C/c1ccc[nH]1` [VI], the IC50 (MCF-7 cell line; MCF-7 cancerous cell line) is listed as 6.25 µM.
For `Cc1nc2sccn2c1C(=O)NN=C1C(=O)Nc2ccc(F)cc21` [Compound 6b, N′-(5-Fluoro-2-oxoindolin-3-ylidene)-6-methylimidazo[2,1-b]thiazole-5-carbohydrazide], the IC50 (MCF-7 breast cell line; [1]) was 11.5 ± 0.52 µM, the IC50 (MCF-10A; [2]) was 125 ± 2.7 µM and the IC50 (VEGFR-2) was 3.85 ± 0.15 µM. For the same molecule, the melting point was greater than 300 °C.
`Cc1nc2sccn2c1C(=O)NN=C1C(=O)Nc2ccc(Br)cc21` [Compound 6d, N′-(5-Bromo-2-oxoindolin-3-ylidene)-6-methylimidazo[2,1-b]thiazole-5-carbohydrazide] gave an IC50 (MCF-7 breast cell line; [1]) of 22.8 ± 1.38 µM and a melting point of 296 to 297 °C.
For `CNC(=O)c1cc(Oc2ccc(NC(=O)Nc3ccc(Cl)c(C(F)(F)F)c3)cc2)ccn1` [Sorafenib (I), Sorafenib, reference compound], the IC50 (MCF-7 breast cell line; [1]) was 7.55 ± 0.4 µM and the IC50 (MCF-10A; [2]) was 22.4 ± 1.29 µM.
For `COc1ccc(-c2nc(N/N=C3/C(=O)Nc4ccc(Cl)cc43)c3ccccc3n2)cc1OC` [VIII], the IC50 (MCF-7 cell line; MCF-7 cancerous cell line) is listed as 2.1 µM.
Molecule `COc1ccc(NC(=O)Nc2c(C)nc3sccn23)cc1` [Compound 8c, 1-(4-Methoxyphenyl)-3-(6-methylimidazo[2,1-b]thiazol-5-yl)urea] has an IC50 (MCF-7 breast cell line; [1]) of 106 ± 5.32 µM and a melting point of 284 to 285 °C.
Molecule `Cc1nc2sccn2c1NC(=O)Nc1ccc(Cl)cc1` [Compound 8e, 1-(4-Chlorophenyl)-3-(6-methylimidazo[2,1-b]thiazol-5-yl)urea] has an IC50 (MCF-7 breast cell line; [1]) of 35.7 ± 3.32 µM and a melting point of 285 to 286 °C.
Molecule `Cc1nc2sccn2c1NC(=O)Nc1ccc(S(N)(=O)=O)cc1` [Compound 8g, 4-(3-(6-Methylimidazo[2,1-b]thiazol-5-yl)ureido)benzenesulfonamide] has an IC50 (MCF-7 breast cell line; [1]) of 41.6 ± 1.59 µM and a melting point of 283 to 284 °C.
For `CCCN1C(=O)C(=NNC(=O)c2c(C)nc3sccn23)c2cc(F)ccc21` [Compound 6f, N′-(5-Fluoro-2-oxo-1-propylindolin-3-ylidene)-6-methylimidazo[2,1-b]thiazole-5-carbohydrazide], the IC50 (MCF-7 breast cell line) was 82.5 ± 2.75 µM and the melting point was 243 to 244 °C.
`Cc1nc2sccn2c1C(=O)NN=C1C(=O)Nc2ccccc21` [Compound 6a, 6-Methyl-N′-(2-oxoindolin-3-ylidene)imidazo[2,1-b]thiazole-5-carbohydrazide] showed an IC50 (MCF-7 breast cell line; [1]) of 24 ± 0.67 µM and a melting point greater than 300 °C.
With `CCCN1C(=O)C(=NNC(=O)c2c(C)nc3sccn23)c2cc(Br)ccc21` [Compound 6h, N′-(5-Bromo-2-oxo-1-propylindolin-3-ylidene)-6-methylimidazo[2,1-b]thiazole-5-carbohydrazide] the IC50 (MCF-7 breast cell line) was 74.3 ± 2.19 µM and the melting point was 261 to 262 °C.
Molecule `CCCN1C(=O)C(=NNC(=O)c2c(C)nc3sccn23)c2ccccc21` [Compound 6e, 6-Methyl-N′-(2-oxo-1-propylindolin-3-ylidene)imidazo[2,1-b]thiazole-5-carbohydrazide] has an IC50 (MCF-7 breast cell line) of 61.4 ± 3.15 µM and a melting point of 256 to 257 °C.
For `CCCCN1C(=O)C(=NNC(=O)c2c(C)nc3sccn23)c2cc(Cl)ccc21` [Compound 6k, N′-(1-Butyl-5-chloro-2-oxoindolin-3-ylidene)-6-methylimidazo[2,1-b]thiazole-5-carbohydrazide], the IC50 (MCF-7 breast cell line) was 42.7 ± 2.01 µM and the melting point was 224 to 225 °C.
In the case of `COc1cc(C(=O)/C=C/c2c(C(F)(F)F)nc3sccn23)cc(OC)c1OC` [IX], the IC50 (MCF-7 cell line; MCF-7 cell line) is listed as 0.794 µM.
Work on `Cc1nc2sccn2c1NC(=O)Nc1ccc(F)cc1` [Compound 8d, 1-(4-Fluorophenyl)-3-(6-methylimidazo[2,1-b]thiazol-5-yl)urea] yielded an IC50 (MCF-7 breast cell line; [1]) of 72.3 ± 4.71 µM and a melting point of 281 to 282 °C.
Work on `Cc1nc2sccn2c1NC(=O)Nc1ccc(Br)cc1` [Compound 8f, 1-(4-Bromophenyl)-3-(6-methylimidazo[2,1-b]thiazol-5-yl)urea] yielded an IC50 (MCF-7 breast cell line; [1]) of 31.1 ± 2.47 µM and a melting point of 288 to 289 °C.

— publication PMC10892120, “Design, Synthesis and Biological Assessment of N′-(2-Oxoindolin-3-ylidene)-6-methylimidazo[2,1-b]thiazole-5-carbohydrazides as Potential Anti-Proliferative Agents toward MCF-7 Breast Cancer” (Pharmaceuticals, 2024)
